In patent US8563690B2, “Modulation of platelet aggregation” (The Board of Trustees of the University of Illinois, priority 2008, dated 2013):
Values belong to the compound of their own block, whether it stands above or below them. Residues, ends and D or L forms follow the SMILES beside them. *: point of attachment. Myristoyl = CCCCCCCCCCCCCC(=O)*

Assays:
Assay type in all cases: cell-based, human
[1] = system: washed platelets; assay: Plasma-free platelet-mediated fibrin clot retraction with washed platelets; settings: 1 mM
Method: FIG. 3A-B: Effects of myr-RGT on fibrin clot retraction and platelet aggregation. FIG. 3A: Platelets were washed and resuspended in HEPES buffer containing 2 mg/ml of human fibrinogen (see “Experimental Procedures”) and incubated with different peptides or their vehicles as indicated. Fibrin clot formation was initiated by adding 1 U/ml thrombin. Clot retraction was monitored over time and photographs of the clots were taken at different time points (lower panel). The asterisks indicate peptide concentration (* 62.5 μM; ** 125 μM; *** 250 μM). The histograms of the clot size were generated from the photographs by calculating the ratio of the surface area of the retracted clot versus that of the initial clot. […]
Platelet clot retraction is an essential step in platelet thrombus consolidation and is initiated following platelet activation as a late consequence of integrin outside-in signaling. […] Clot retraction was monitored over a 90 min time period by taking photographs at indicated time points using a digital camera. Clot retraction was quantified on the photographs by measuring the clot surface area with the NIH Image 1.67e software, and the data were processed using Excel 4.0. Results were expressed as percentage of retraction (%=area t/area t0×100%).

[2] = system: platelets; assay: Platelet stable adhesion on immobilized fibrinogen (phosphatase assay); settings: 62.5-250 μM
Method: (§1) FIG. 2A-C: Quantitative analysis of the effect of myristoylated RGT peptide on platelet stable adhesion and spreading on immobilized fibrinogen. FIG. 2A: Platelets were added to microtiter wells precoated with fibrinogen and allowed to adhere for 30 min at 37° C. The phosphatase activity in supernatants (open columns) or in adherent platelets (close columns) was quantified by a PNPP assay. Data of three experiments (means and SD) were presented as the ratio of the phosphatase activity of platelet samples over blank. The asterisks indicate peptide concentration (* 62.5 μM; ** 125 μM; *** 250 μM). […] The phosphatase activity in supernatants (open columns) or in remaining platelet suspensions (close columns) was quantified by a PNPP assay. […] For quantitative analysis of the effect of the RGT peptide on platelet adhesion, we used a phosphatase assay. […] Nonadherent platelets were removed by three vigorous washes with phosphate-buffered saline (PBS), and adherent platelets were quantified by a phosphatase assay. In addition, to monitor peptide-dependent platelet lysis, the platelet phosphatase activity was separately measured in the supernatant of the platelets in suspension or following their adhesion to fibrinogen by mixing with PNPP substrate solution (100 mM sodium acetate, 1% Triton X-100, 3 mg/ml p-nitrophenyl phosphate) for 60 min at 37° C. […]

[3] = system: platelets
Method: as §1

Compound: RGDS
inhibition of clot retraction [1]: inhibit clot retraction

Compound: CCCCCCCCCCCCCC(=O)O [myristic acid, tetradecanoic acid]
effect on platelet stable adhesion on immobilized fibrinogen [2]: no significant inhibitory effect

platelet lysis [3]: did not induce platelet lysis
Compound: CCCCCCCCCCCCCC(=O)N[C@@H](CCCNC(=N)N)C(=O)NCC(=O)N[C@H](C(=O)O)[C@@H](C)O [myr-RGT] (Myristoyl-Arg-Gly-Thr-OH; N-terminus and C-terminus assumed)
